# Laboratory results as given in patent US20190231751A1, “TREATMENT OF FIBROTIC DISORDERS WITH JUN N-TERMINAL KINASE INHIBITORS” (Imago Pharmaceuticals, Inc., priority 2016, published 2019).
# Legend:
# Type in all cases: biochemical
# JNK3 = JNK3 (Homo sapiens, UniProt P53779); test: In vitro JNK3 inhibition (Table 1)
# Description: (§1) In vitro assays for the determination of JNK activities are known in the art and exemplary assay formats are described herein.
# (§2) IC50 values in Table 1 were determined using the procedures as described in U.S. Pat. No. 8,450,353.
# JNK1 = JNK1 (Homo sapiens, UniProt P45983); test: In vitro JNK1 inhibition (Table 1)
# Sequence of JNK1 (P45983 whole entry, species assumed): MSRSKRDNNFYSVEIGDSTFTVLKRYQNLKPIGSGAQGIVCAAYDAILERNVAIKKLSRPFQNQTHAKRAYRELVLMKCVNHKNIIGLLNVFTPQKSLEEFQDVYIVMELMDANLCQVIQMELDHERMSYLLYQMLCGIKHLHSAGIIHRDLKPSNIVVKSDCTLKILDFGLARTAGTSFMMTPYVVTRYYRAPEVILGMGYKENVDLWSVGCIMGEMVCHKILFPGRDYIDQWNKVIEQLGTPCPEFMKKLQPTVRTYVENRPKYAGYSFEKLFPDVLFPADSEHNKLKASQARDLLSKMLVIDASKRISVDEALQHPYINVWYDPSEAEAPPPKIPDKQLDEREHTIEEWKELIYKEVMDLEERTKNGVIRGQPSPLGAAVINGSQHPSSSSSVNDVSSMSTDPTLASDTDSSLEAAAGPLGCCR
# Description: as §1, §2
# JNK2 = JNK2 (Homo sapiens, UniProt P45984); test: In vitro JNK2 inhibition (Table 1)
# Sequence of JNK2 (P45984 whole entry, species assumed): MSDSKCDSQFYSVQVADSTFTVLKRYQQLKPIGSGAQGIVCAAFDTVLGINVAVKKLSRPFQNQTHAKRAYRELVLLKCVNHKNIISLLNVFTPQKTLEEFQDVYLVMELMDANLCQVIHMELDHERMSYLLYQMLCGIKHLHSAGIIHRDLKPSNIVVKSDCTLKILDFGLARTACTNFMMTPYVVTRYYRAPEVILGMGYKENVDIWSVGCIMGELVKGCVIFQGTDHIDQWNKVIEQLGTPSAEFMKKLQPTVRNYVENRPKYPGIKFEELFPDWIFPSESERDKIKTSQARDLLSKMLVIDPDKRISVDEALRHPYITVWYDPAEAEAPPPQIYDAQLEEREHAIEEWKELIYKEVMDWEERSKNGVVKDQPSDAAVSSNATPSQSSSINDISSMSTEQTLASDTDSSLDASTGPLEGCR
# Description: as §1, §2
# Sequence of JNK3 (P53779 whole entry, species assumed): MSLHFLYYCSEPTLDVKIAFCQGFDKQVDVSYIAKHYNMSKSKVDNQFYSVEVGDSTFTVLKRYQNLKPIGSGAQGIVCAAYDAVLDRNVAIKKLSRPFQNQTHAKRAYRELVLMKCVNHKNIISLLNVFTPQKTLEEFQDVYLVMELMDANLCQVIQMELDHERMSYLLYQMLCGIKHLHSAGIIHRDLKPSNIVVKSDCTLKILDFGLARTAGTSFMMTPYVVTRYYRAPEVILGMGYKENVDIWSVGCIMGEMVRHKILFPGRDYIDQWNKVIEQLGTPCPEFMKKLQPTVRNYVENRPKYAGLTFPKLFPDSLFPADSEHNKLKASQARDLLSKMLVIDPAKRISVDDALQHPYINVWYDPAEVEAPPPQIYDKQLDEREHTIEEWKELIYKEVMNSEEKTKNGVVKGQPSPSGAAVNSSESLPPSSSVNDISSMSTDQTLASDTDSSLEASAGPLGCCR
compound,measurement,setting,value
N#Cc1csc(NC(=O)Cn2c(=O)ccc3cc(C(F)(F)F)ccc32)c1-c1ncco1 [N-(4-cyano-3-(oxazol-2-yl)thiophen-2-yl)-2-(2-oxo-6-(trifluoromethyl)quinolin-1(2H)-yl)acetamide],IC50,JNK3,< 100 nM
same,IC50,JNK1,< 100 nM
same,IC50,JNK2,< 100 nM
"N#Cc1csc(NC(=O)Cn2c(=O)ccc3cc(C(F)(F)F)ccc32)c1-n1nccn1 [N-(4-cyano-3-(2H-1,2,3-triazol-2-yl)thiophen-2-yl)-2-(2-oxo-6-(trifluoromethyl)quinolin-1(2H)-yl)acetamide]",IC50,JNK3,< 100 nM
same,IC50,JNK1,< 100 nM
same,IC50,JNK2,< 100 nM
"CN(C)CCN(C(=O)Cn1c(=O)ccc2cc(C(F)(F)F)ccc21)c1scc(Cl)c1-c1nc[nH]n1 [N-(4-chloro-3-(1H-1,2,4-triazol-3-yl)thiophen-2-yl)-N-(2-(dimethylamino)ethyl)-2-(2-oxo-6-(trifluoromethyl)quinolin-1(2H)-yl)acetamide]",IC50,JNK3,100 to 10000 nM
same,IC50,JNK1,100 to 10000 nM
same,IC50,JNK2,100 to 10000 nM
"Cn1cnc(-c2c(C#N)csc2NC(=O)CN2C(=O)CCc3ncccc32)n1 [N-(4-cyano-3-(1-methyl-1H-1,2,4-triazol-3-yl)thiophen-2-yl)-2-(2-oxo-3,4-dihydro-1,5-naphthyridin-1(2H)-yl)acetamide]",IC50,JNK3,< 100 nM
same,IC50,JNK1,< 100 nM
same,IC50,JNK2,< 100 nM
"O=C(Cn1c(=O)ccc2cc(F)c(F)cc21)Nc1scc(Br)c1-c1ncn[nH]1 [N-(4-bromo-3-(1H-1,2,4-triazol-5-yl)thiophen-2-yl)-2-(6,7-difluoro-2-oxoquinolin-1(2H)-yl)acetamide]",IC50,JNK3,< 100 nM
same,IC50,JNK1,< 100 nM
same,IC50,JNK2,< 100 nM
"O=C(Cn1c(=O)ccc2cc(C(F)(F)F)ccc21)Nc1scc(Cl)c1-c1ncn(CCCN2CCOCC2)n1 [N-(4-chloro-3-(1-(3-morpholinopropyl)-1H-1,2,4-triazol-3-yl)thiophen-2-yl)-2-(2-oxo-6-(trifluoromethyl)quinolin-1(2H)-yl)acetamide]",IC50,JNK3,< 100 nM
same,IC50,JNK1,< 100 nM
same,IC50,JNK2,< 100 nM
"O=C(CN1C(=O)CCc2ncccc21)Nc1scc(Cl)c1-c1nc[nH]n1 [N-(4-chloro-3-(1H-1,2,4-triazol-3-yl)thiophen-2-yl)-2-(2-oxo-3,4-dihydro-1,5-naphthyridin-1(2H)-yl)acetamide]",IC50,JNK3,< 100 nM
same,IC50,JNK1,< 100 nM
same,IC50,JNK2,< 100 nM
"Cn1cnc(-c2c(Cl)csc2NC(=O)Cn2c(=O)ccc3cnc(C(F)(F)F)cc32)n1 [N-(4-chloro-3-(1-methyl-1H-1,2,4-triazol-3-yl)thiophen-2-yl)-2-(2-oxo-7-(trifluoromethyl)-1,6-naphthyridin-1(2H)-yl)acetamide]",IC50,JNK3,< 100 nM
same,IC50,JNK1,< 100 nM
same,IC50,JNK2,< 100 nM
"O=C(Cn1c(=O)ccc2nc(C(F)(F)F)ccc21)Nc1scc(Br)c1-c1ncn[nH]1 [N-(4-bromo-3-(1H-1,2,4-triazol-5-yl)thiophen-2-yl)-2-(2-oxo-6-(trifluoromethyl)-1,5-naphthyridin-1(2H)-yl)acetamide]",IC50,JNK3,< 100 nM
same,IC50,JNK1,< 100 nM
same,IC50,JNK2,< 100 nM
"Cn1cnc(-c2c(Cl)csc2NC(=O)Cn2c(=O)ccn3nccc23)n1 [N-(4-chloro-3-(1-methyl-1H-1,2,4-triazol-3-yl)thiophen-2-yl)-2-(5-oxopyrazolo[1,5-a]pyrimidin-4(5H)-yl)acetamide]",IC50,JNK3,< 100 nM
same,IC50,JNK1,< 100 nM
same,IC50,JNK2,< 100 nM
"O=C(Cn1c(=O)ccn2nccc12)Nc1scc(Br)c1-c1ncn[nH]1 [N-(4-bromo-3-(1H-1,2,4-triazol-5-yl)thiophen-2-yl)-2-(5-oxopyrazolo[1,5-a]pyrimidin-4(5H)-yl)acetamide]",IC50,JNK3,< 100 nM
same,IC50,JNK1,< 100 nM
same,IC50,JNK2,< 100 nM
"O=C(Cn1c(=O)ccc2ncccc21)Nc1scc(Br)c1-c1ncn[nH]1 [IGP002, N-(4-bromo-3-(1H-1,2,4-triazol-5-yl)thiophen-2-yl)-2-(2-oxo-1,5-naphthyridin-1(2H)-yl)acetamide]",IC50,JNK3,< 100 nM
same,IC50,JNK1,< 100 nM
same,IC50,JNK2,< 100 nM
"O=C(Cn1c(=O)ccc2cc(F)ccc21)Nc1scc(Br)c1-c1ncn[nH]1 [N-(4-bromo-3-(1H-1,2,4-triazol-5-yl)thiophen-2-yl)-2-(6-fluoro-2-oxoquinolin-1(2H)-yl)acetamide]",IC50,JNK3,< 100 nM
same,IC50,JNK1,< 100 nM
same,IC50,JNK2,< 100 nM
"O=C(CN1C(=O)CCc2ccccc21)Nc1scc(Cl)c1-c1ncn[nH]1 [N-(4-chloro-3-(1H-1,2,4-triazol-5-yl)thiophen-2-yl)-2-(2-oxo-3,4-dihydroquinolin-1(2H)-yl)acetamide]",IC50,JNK3,< 100 nM
same,IC50,JNK1,< 100 nM
same,IC50,JNK2,< 100 nM
"Cn1cnc(-c2c(C#N)csc2NC(=O)Cc2cccc3ncccc23)n1 [N-(4-cyano-3-(1-methyl-1H-1,2,4-triazol-3-yl)thiophen-2-yl)-2-(quinolin-5-yl)acetamide]",IC50,JNK3,< 100 nM
same,IC50,JNK1,< 100 nM
same,IC50,JNK2,< 100 nM
"C#Cc1ccc2c(ccc(=O)n2CC(=O)Nc2scc(Br)c2-c2ncn[nH]2)c1 [N-(4-bromo-3-(1H-1,2,4-triazol-5-yl)thiophen-2-yl)-2-(6-ethynyl-2-oxoquinolin-1(2H)-yl)acetamide]",IC50,JNK3,< 100 nM
same,IC50,JNK1,< 100 nM
same,IC50,JNK2,< 100 nM
"O=C(CN1C(=O)CCc2ncccc21)Nc1scc(Br)c1-c1ncco1 [N-(4-bromo-3-(oxazol-2-yl)thiophen-2-yl)-2-(2-oxo-3,4-dihydro-1,5-naphthyridin-1(2H)-yl)acetamide]",IC50,JNK3,< 100 nM
same,IC50,JNK1,< 100 nM
same,IC50,JNK2,< 100 nM
"O=C(Cc1cccc2cnccc12)Nc1scc(Cl)c1-c1ncn[nH]1 [N-(4-chloro-3-(1H-1,2,4-triazol-5-yl)thiophen-2-yl)-2-(isoquinolin-5-yl)acetamide]",IC50,JNK3,< 100 nM
same,IC50,JNK1,< 100 nM
same,IC50,JNK2,< 100 nM
"O=C(Cc1ccc(F)c2cnccc12)Nc1scc(Br)c1-c1ncn[nH]1 [N-(4-bromo-3-(1H-1,2,4-triazol-5-yl)thiophen-2-yl)-2-(8-fluoroisoquinolin-5-yl)acetamide]",IC50,JNK3,< 100 nM
same,IC50,JNK1,< 100 nM
same,IC50,JNK2,< 100 nM
"O=C(CN1C(=O)CCc2ncccc21)Nc1scc(Br)c1-c1ncn[nH]1 [N-(4-bromo-3-(1H-1,2,4-triazol-5-yl)thiophen-2-yl)-2-(2-oxo-3,4-dihydro-1,5-naphthyridin-1(2H)-yl)acetamide]",IC50,JNK3,< 100 nM
same,IC50,JNK1,< 100 nM
same,IC50,JNK2,< 100 nM
"O=C(Cc1cccc2cnccc12)Nc1scc(Br)c1-c1ncn[nH]1 [N-(4-bromo-3-(1H-1,2,4-triazol-5-yl)thiophen-2-yl)-2-(isoquinolin-5-yl)acetamide]",IC50,JNK3,< 100 nM
same,IC50,JNK1,< 100 nM
same,IC50,JNK2,< 100 nM
"O=C(Cn1c(=O)ccn2nc(C(F)(F)F)cc12)Nc1scc(Cl)c1-c1ncn[nH]1 [N-(4-chloro-3-(1H-1,2,4-triazol-5-yl)thiophen-2-yl)-2-(5-oxo-2-(trifluoromethyl)pyrazolo[1,5-a]pyrimidin-4(5H)-yl)acetamide]",IC50,JNK3,< 100 nM
same,IC50,JNK1,< 100 nM
same,IC50,JNK2,< 100 nM
"O=C(CN1C(=O)CCc2ncccc21)Nc1scc(Cl)c1-c1nccs1 [N-(4-chloro-3-(thiazol-2-yl)thiophen-2-yl)-2-(2-oxo-3,4-dihydro-1,5-naphthyridin-1(2H)-yl)acetamide]",IC50,JNK3,< 100 nM
same,IC50,JNK1,< 100 nM
same,IC50,JNK2,< 100 nM
"Cc1n[nH]c(-c2c(Cl)csc2NC(=O)CN2C(=O)CCc3ncccc32)n1 [N-(4-chloro-3-(3-methyl-1H-1,2,4-triazol-5-yl)thiophen-2-yl)-2-(2-oxo-3,4-dihydro-1,5-naphthyridin-1(2H)-yl)acetamide]",IC50,JNK3,< 100 nM
same,IC50,JNK1,< 100 nM
same,IC50,JNK2,< 100 nM
"N#Cc1csc(NC(=O)Cc2cccc3ncccc23)c1-c1nnc[nH]1 [N-(4-cyano-3-(4H-1,2,4-triazol-3-yl)thiophen-2-yl)-2-(quinolin-5-yl)acetamide]",IC50,JNK3,< 100 nM
same,IC50,JNK1,< 100 nM
same,IC50,JNK2,< 100 nM
"O=C(Cc1c(F)ccc2ncccc12)Nc1scc(Br)c1-c1ncn[nH]1 [N-(4-bromo-3-(1H-1,2,4-triazol-5-yl)thiophen-2-yl)-2-(6-fluoroquinolin-5-yl)acetamide]",IC50,JNK3,< 100 nM
same,IC50,JNK1,< 100 nM
same,IC50,JNK2,< 100 nM
"O=C(Cn1c(=O)ccc2cc(C(F)(F)F)ccc21)Nc1scc(Cl)c1-c1ncn(CCCN2CCCC2)n1 [N-(4-chloro-3-(1-(3-(pyrrolidin-1-yl)propyl)-1H-1,2,4-triazol-3-yl)thiophen-2-yl)-2-(2-oxo-6-(trifluoromethyl)quinolin-1(2H)-yl)acetamide]",IC50,JNK3,< 100 nM
same,IC50,JNK1,< 100 nM
same,IC50,JNK2,< 100 nM
"O=C(Cn1c(=O)ccn2nc(C(F)(F)F)cc12)Nc1scc(Br)c1-c1ncn[nH]1 [N-(4-bromo-3-(1H-1,2,4-triazol-5-yl)thiophen-2-yl)-2-(5-oxo-2-(trifluoromethyl)pyrazolo[1,5-a]pyrimidin-4(5H)-yl)acetamide]",IC50,JNK3,< 100 nM
same,IC50,JNK1,< 100 nM
same,IC50,JNK2,< 100 nM
"O=C(Cn1c(=O)ccc2ccc(F)cc21)Nc1scc(Br)c1-c1ncn[nH]1 [N-(4-bromo-3-(1H-1,2,4-triazol-5-yl)thiophen-2-yl)-2-(7-fluoro-2-oxoquinolin-1(2H)-yl)acetamide]",IC50,JNK3,< 100 nM
same,IC50,JNK1,< 100 nM
same,IC50,JNK2,< 100 nM
"Cn1cnc(-c2c(Cl)csc2NC(=O)CN2C(=O)CCc3ncccc32)n1 [N-(4-chloro-3-(1-methyl-1H-1,2,4-triazol-3-yl)thiophen-2-yl)-2-(2-oxo-3,4-dihydro-1,5-naphthyridin-1(2H)-yl)acetamide]",IC50,JNK3,< 100 nM
same,IC50,JNK1,< 100 nM
same,IC50,JNK2,< 100 nM
"O=C(CN1C(=O)CCc2cnccc21)Nc1scc(Br)c1-c1ncn[nH]1 [N-(4-bromo-3-(1H-1,2,4-triazol-5-yl)thiophen-2-yl)-2-(2-oxo-3,4-dihydro-1,6-naphthyridin-1(2H)-yl)acetamide]",IC50,JNK3,< 100 nM
same,IC50,JNK1,< 100 nM
same,IC50,JNK2,< 100 nM
"N#Cc1csc(NC(=O)CN2C(=O)CCc3ccccc32)c1-c1ncn[nH]1 [N-(4-cyano-3-(1H-1,2,4-triazol-5-yl)thiophen-2-yl)-2-(2-oxo-3,4-dihydroquinolin-1(2H)-yl)acetamide]",IC50,JNK3,< 100 nM
same,IC50,JNK1,< 100 nM
same,IC50,JNK2,< 100 nM
